Reference: patent publication US20170190671A1, “BIS(ARYL)CATECHOL DERIVATIVES AS HERBICIDES” (E I DU PONT DE NEMOURS AND COMPANY, priority 2014, published 2017)

Legend:
corn (Zea mays) [1] = assay: Test C postemergence; assay type: in vivo; details: Zea mays, post-emergence, 336 h, Postemergence, scale 0 to 100
How it was run: (§1)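 Seeded loam-sand soil (preemergence) or young potted plants of 2-18 cm (postemergence) received test chemical formulated with surfactant in a non-phytotoxic solvent. Pots were kept in the greenhouse for 13-15 days before a visual 0-100 control rating relative to controls.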

soybean (Glycine max) [2] = assay: Test C postemergence; assay type: in vivo; details: Glycine max, post-emergence, Postemergence, scale 0 to 100, read-out: Plant response rating, Soybean
How it was run: as §1

[3] = test system: waterhemp (common waterhemp, Amaranthus rudis); assay: Test C postemergence; assay type: in vivo; details: Amaranthus tuberculatus, post-emergence, Postemergence, scale 0 to 100, read-out: Plant response rating, Waterhemp
How it was run: as §1

[4] = test system: ragweed (common ragweed, Ambrosia elatior); assay: Test C postemergence; assay type: in vivo; details: Ambrosia artemisiifolia, post-emergence, 336 h, Postemergence, scale 0 to 100, read-out: Plant response rating, Ragweed
How it was run: as §1

[5] = test system: galium (catchweed bedstraw, Galium aparine); assay: Test C postemergence; assay type: in vivo; details: Galium, post-emergence, 336 h, Postemergence, scale 0 to 100, read-out: Plant response rating, Galium
How it was run: as §1

[6] = test system: lambsquarters (Chenopodium album); assay: Test C postemergence; assay type: in vivo; details: Chenopodium album, post-emergence, 336 h, Postemergence, scale 0 to 100, read-out: Plant response rating, Lambsquarters
How it was run: as §1

[7] = test system: pigweed (Amaranthus retroflexus); assay: Test C preemergence; assay type: in vivo; details: Amaranthus retroflexus, pre-emergence, 336 h, preemergence, scale 0 to 100, read-out: Plant response rating, Pigweed
How it was run: as §1

[8] = test system: blackgrass (Alopecurus myosuroides); assay: Test C preemergence; assay type: in vivo; details: Alopecurus myosuroides, pre-emergence, 336 h, preemergence, scale 0 to 100, read-out: Plant response rating, Blackgrass
How it was run: as §1

corn (Zea mays) [9] = assay: Test C preemergence; assay type: in vivo; details: Zea mays, pre-emergence, 336 h, preemergence, scale 0 to 100
How it was run: as §1

[10] = test system: oilseed rape (Brassica napus); assay: Test C preemergence; assay type: in vivo; details: Brassica napus, pre-emergence, preemergence, scale 0 to 100, read-out: Plant response rating, Oilseed Rape
How it was run: as §1

soybean (Glycine max) [11] = assay: Test C preemergence; assay type: in vivo; details: Glycine max, pre-emergence, preemergence, scale 0 to 100, read-out: Plant response rating, Soybean
How it was run: as §1

[12] = test system: waterhemp (common waterhemp, Amaranthus rudis); assay: Test C preemergence; assay type: in vivo; details: Amaranthus tuberculatus, pre-emergence, preemergence, scale 0 to 100, read-out: Plant response rating, Waterhemp
How it was run: as §1

[13] = test system: barnyardgrass (Echinochloa crus-galli); assay: Test C preemergence; assay type: in vivo; details: Echinochloa crus-galli, pre-emergence, preemergence, scale 0 to 100, read-out: Plant response rating, Barnyardgrass
How it was run: as §1

[14] = test system: johnsongrass (Sorghum halepense); assay: Test C preemergence; assay type: in vivo; details: Sorghum halepense, pre-emergence, 336 h, preemergence, scale 0 to 100, read-out: Plant response rating, Johnsongrass
How it was run: as §1

[15] = test system: yellow nutsedge (Cyperus esculentus); assay: Test C preemergence; assay type: in vivo; details: Cyperus, pre-emergence, 336 h, preemergence, scale 0 to 100, read-out: Plant response rating, Nutsedge, Yellow
How it was run: as §1

[16] = test system: Italian ryegrass (Lolium multiflorum); assay: Test C preemergence; assay type: in vivo; details: Lolium multiflorum, pre-emergence, 336 h, preemergence, scale 0 to 100, read-out: Plant response rating, Ryegrass, Italian
How it was run: as §1

[17] = test system: lambsquarters (Chenopodium album); assay: Test C preemergence; assay type: in vivo; details: Chenopodium album, pre-emergence, 336 h, preemergence, scale 0 to 100, read-out: Plant response rating, Lambsquarters
How it was run: as §1

[18] = test system: morningglory (Ipomoea coccinea); assay: Test C preemergence; assay type: in vivo; details: Ipomoea, pre-emergence, 336 h, preemergence, scale 0 to 100, read-out: Plant response rating, Morningglory
How it was run: as §1

[19] = test system: winter wheat (Triticum aestivum); assay: Test C preemergence; assay type: in vivo; details: Triticum aestivum, pre-emergence, 336 h, preemergence, scale 0 to 100, read-out: Plant response rating, Wheat
How it was run: as §1

[20] = test system: velvetleaf (Abutilon theophrasti); assay: Test C preemergence; assay type: in vivo; details: Abutilon theophrasti, pre-emergence, preemergence, scale 0 to 100, read-out: Plant response rating, Velvetleaf
How it was run: as §1

[21] = test system: large (Lg) crabgrass (Digitaria sanguinalis); assay: Test C preemergence; assay type: in vivo; details: Digitaria sanguinalis, pre-emergence, 336 h, preemergence, scale 0 to 100, read-out: Plant response rating, Crabgrass, Large
How it was run: as §1

[22] = test system: giant foxtail (Setaria faberii); assay: Test C preemergence; assay type: in vivo; details: Setaria faberi, pre-emergence, 336 h, preemergence, scale 0 to 100, read-out: Plant response rating, Foxtail, Giant
How it was run: as §1

Clc1cnc(Oc2cccc(Cl)c2Oc2ncc(Br)cn2)nc1 [Compound 17, 5-bromo-2-[2-chloro-6-[(5-chloro-2-pyrimidinyl)oxy]phenoxy]pyrimidine]
100%: pest or weed control at 31 g/ha ([7]; 31 g ai/ha) | pest or weed control at 62 g/ha ([7]; 62 g ai/ha) | pest or weed control at 125 g/ha ([7]; 125 g ai/ha) | plant injury at 125 g/ha ([10]; 125 g ai/ha) | pest or weed control at 31 g/ha ([12]; 31 g ai/ha) | pest or weed control at 62 g/ha ([12]; 62 g ai/ha) | pest or weed control at 125 g/ha ([12]; 125 g ai/ha) | pest or weed control at 250 g/ha ([12]; 250 g ai/ha) | pest or weed control at 125 g/ha ([13]; 125 g ai/ha) | pest or weed control at 250 g/ha ([13]; 250 g ai/ha) | pest or weed control at 125 g/ha ([20]; 125 g ai/ha) | pest or weed control at 250 g/ha ([20]; 250 g ai/ha) | pest or weed control at 31 g/ha ([21]; 31 g ai/ha) | pest or weed control at 62 g/ha ([21]; 62 g ai/ha) | pest or weed control at 125 g/ha ([21]; 125 g ai/ha) | pest or weed control at 62 g/ha ([22]; 62 g ai/ha) | pest or weed control at 125 g/ha ([22]; 125 g ai/ha)
70%: pest or weed control at 31 g/ha ([5]; 31 g ai/ha) | pest or weed control at 62 g/ha ([6]; 62 g ai/ha) | plant injury at 250 g/ha (soybean (Glycine max) [11]; 250 g ai/ha)
0%: Corn plant response rating (crop injury, 0 = no effect, 100 = complete kill) at 31 g/ha (corn (Zea mays) [9]; 31 g ai/ha) | pest or weed control at 31 g/ha ([15]; 31 g ai/ha) | plant injury at 31 g/ha ([19]; 31 g ai/ha)
166 to 169 °C: melting point
50%: pest or weed control at 31 g/ha ([4]; 31 g ai/ha) | pest or weed control at 62 g/ha ([14]; 62 g ai/ha)
15%: Corn plant response rating (crop injury, 0 = no effect, 100 = complete kill) at 250 g/ha (corn (Zea mays) [1]; 250 g ai/ha) | Corn plant response rating (crop injury, 0 = no effect, 100 = complete kill) at 62 g/ha (corn (Zea mays) [9]; 62 g ai/ha)
20%: Corn plant response rating (crop injury, 0 = no effect, 100 = complete kill) at 62 g/ha (corn (Zea mays) [1]; 62 g ai/ha) | Corn plant response rating (crop injury, 0 = no effect, 100 = complete kill) at 125 g/ha (corn (Zea mays) [1]; 125 g ai/ha) | plant injury at 62 g/ha (soybean (Glycine max) [11]; 62 g ai/ha) | pest or weed control at 31 g/ha ([13]; 31 g ai/ha) | pest or weed control at 31 g/ha ([16]; 31 g ai/ha)
55%: plant injury at 31 g/ha (soybean (Glycine max) [2]; 31 g ai/ha) | pest or weed control at 250 g/ha ([4]; 250 g ai/ha) | Corn plant response rating (crop injury, 0 = no effect, 100 = complete kill) at 125 g/ha (corn (Zea mays) [9]; 125 g ai/ha) | pest or weed control at 125 g/ha ([15]; 125 g ai/ha)
90%: plant injury at 125 g/ha (soybean (Glycine max) [2]; 125 g ai/ha) | plant injury at 250 g/ha (soybean (Glycine max) [2]; 250 g ai/ha) | pest or weed control at 31 g/ha ([3]; 31 g ai/ha) | pest or weed control at 125 g/ha ([5]; 125 g ai/ha) | pest or weed control at 125 g/ha ([6]; 125 g ai/ha) | pest or weed control at 62 g/ha ([8]; 62 g ai/ha) | plant injury at 62 g/ha ([10]; 62 g ai/ha) | pest or weed control at 125 g/ha ([16]; 125 g ai/ha) | pest or weed control at 62 g/ha ([17]; 62 g ai/ha)
60%: pest or weed control at 125 g/ha ([4]; 125 g ai/ha) | pest or weed control at 31 g/ha ([8]; 31 g ai/ha) | pest or weed control at 62 g/ha ([18]; 62 g ai/ha)
98%: pest or weed control at 250 g/ha ([3]; 250 g ai/ha) | plant injury at 250 g/ha ([10]; 250 g ai/ha) | pest or weed control at 125 g/ha ([18]; 125 g ai/ha)
80%: plant injury at 62 g/ha (soybean (Glycine max) [2]; 62 g ai/ha) | pest or weed control at 62 g/ha ([5]; 62 g ai/ha) | pest or weed control at 31 g/ha ([6]; 31 g ai/ha)
5%: Corn plant response rating (crop injury, 0 = no effect, 100 = complete kill) at 31 g/ha (corn (Zea mays) [1]; 31 g ai/ha) | plant injury at 31 g/ha (soybean (Glycine max) [11]; 31 g ai/ha)
45%: pest or weed control at 62 g/ha ([4]; 62 g ai/ha) | plant injury at 125 g/ha (soybean (Glycine max) [11]; 125 g ai/ha) | plant injury at 62 g/ha ([19]; 62 g ai/ha)
85%: plant injury at 31 g/ha ([10]; 31 g ai/ha) | pest or weed control at 62 g/ha ([13]; 62 g ai/ha) | pest or weed control at 125 g/ha ([14]; 125 g ai/ha) | pest or weed control at 31 g/ha ([17]; 31 g ai/ha) | plant injury at 250 g/ha ([19]; 250 g ai/ha)
40%: pest or weed control at 62 g/ha ([16]; 62 g ai/ha) | pest or weed control at 31 g/ha ([18]; 31 g ai/ha) | plant injury at 125 g/ha ([19]; 125 g ai/ha)
10%: pest or weed control at 31 g/ha ([14]; 31 g ai/ha) | pest or weed control at 62 g/ha ([15]; 62 g ai/ha)
95%: pest or weed control at 62 g/ha ([3]; 62 g ai/ha) | pest or weed control at 125 g/ha ([3]; 125 g ai/ha) | pest or weed control at 250 g/ha ([5]; 250 g ai/ha) | pest or weed control at 250 g/ha ([6]; 250 g ai/ha) | pest or weed control at 125 g/ha ([8]; 125 g ai/ha) | pest or weed control at 250 g/ha ([16]; 250 g ai/ha) | pest or weed control at 125 g/ha ([17]; 125 g ai/ha) | pest or weed control at 62 g/ha ([20]; 62 g ai/ha) | pest or weed control at 31 g/ha ([22]; 31 g ai/ha)
65%: pest or weed control at 31 g/ha ([20]; 31 g ai/ha)
